From US20260176289A1, “SMALL MOLECULE INHIBITORS OF KRAS PROTEINS” (Merck Sharp & Dohme LLC, priority 2022, published 2026)
Like-named read-outs stand apart in the source and are kept apart here.

Tests used:
KRAS-G12D = KRAS-G12D (Homo sapiens, UniProt P01116, G12D); assay: SOS-catalyzed nucleotide exchange assay (Procedure A, TR-FRET), KRAS-G12D; assay type: biochemical; conditions: nucleotide exchange, read-out: KRAS G12D GNE IC50
Description: (§1) Procedure for SOS-Catalyzed Nucleotide Exchange Assay for KRAS-WT, G12C/D/V, G13D, HRAS, and NRAS (Procedure A)
(§2) Recombinant KRAS-G12C protein used in this assay has an additional triple mutation (C51S/C80L/C118S). Whereas KRAS-WT, G12D/V, G13D, HRAS and NRAS are in context of their WT protein sequence background. Specifically, the SOS-catalyzed nucleotide exchange assay utilizes a preformed TR-FRET complex containing a specific biotinylated RAS protein (KRAS-WT, G12C/V/D, G13D, HRAS, NRAS; described above) with Bodipy-GDP, and Terbium-streptavidin. Compounds are preincubated with this complex for 60 minutes. Subsequently, recombinant human SOS protein and unlabeled GTP are added to initiate the exchange reaction. Small molecule inhibitors stabilize the Bodipy-GDP complex whereas the untreated protein rapidly exchanges Bodipy-GDP for unlabeled GTP resulting in reduced TR-FRET signal.
(§3) To assemble the preformed TR-FRET complexes, each biotinylated RAS protein is diluted to 2 μM in an EDTA Buffer (20 mM HEPES pH 7.5, 50 mM sodium chloride, 10 mM EDTA, and 0.01% Tween) and incubated at room temperature for one hour. This mixture is then further diluted to 90 nM in an Assay Buffer (20 mM HEPES pH 7.5, 150 mM sodium chloride, 10 mM magnesium chloride, and 0.005% Tween) containing 15 nM of Terbium-Streptavidin (Invitrogen, catalog #PV3577) and 900 nM of Bodipy-GDP (Invitrogen, catalog #G22360) and incubated at room temperature for six hours. It should be noted that this preformed TR-FRET complex for each of the RAS protein were made ahead of time, aliquoted and stored at −80° C. until the day of the experiment.
(§4) Each test compound (10 mM stock in DMSO) is diluted in DMSO to make a final-10-point, 3-fold dilution and is acoustically dispensed into a 384-well assay plate (Corning, catalog #3820) using an Echo 550 (Labcyte). Each well of the assay plate receives 3 μL of a specific 3×RAS preformed TR-FRET complex and 3 μL of Assay Buffer and is incubated at room temperature for 60 minutes (preincubation time). Each well then receives 3 μL of 3×recombinant human SOS protein and GTP (Sigma, G8877) in Assay Buffer and is incubated at room temperature for 30 minutes (G13D), 60 minutes (KRAS WT/G12C/D, H/NRAS) or 90 minutes for G12V. The final reaction in each well of 9 μL consists of 3 mM GTP, specific Ras and SOS proteins in the following concentrations: KRAS-G12C/SOS=3 nM/40 nM, KRAS-WT and G12D/SOS=1 nM/40 nM, KRAS-G12V/SOS=1.25 nM/160 nM. KRAS-G13D/SOS=1.25 nM/0 nM, HRAS and NRAS=1.25 nM/40 nM.
(§5) The time-resolved fluorescence resonance energy transfer (TR-FRET) signal is measured on an Envision (PerkinElmer) plate reader: Excitation filter=340 nm; emission 1=495 nm; emission2=520 nm; dichroic mirror=D400/D505; delay time=[…]. The signal of each well is determined as the ratio of the emission at 520 nm to that at 495 nm. Percent effect of each well is determined after normalization to control wells containing DMSO (no effect) or a saturating concentration of inhibitor (max effect). The apparent effect as a function of compound concentration is fit to a four-parameter logistic equation.

AsPC-1 cells = assay: Cellular phospho-ERK assay, AsPC-1 cells (homozygous KRAS-G12D); assay type: cell-based; conditions: Homo sapiens, ASPC1, 2 h, read-out: AsPC1 pERK IC50
Protocol: Procedure for Cellular Phospho-ERK Assay in KRAS Wild Type and Mutant (G12D, G12V) Cell Lines
MKN-1 cells (JCRB JCRB0252) containing amplified wild-type KRAS, were cultured in growth medium that contains RPMI 1640-GlutaMAX™-I (ThermoFisher Scientific 61870) containing 10% heat inactivated fetal bovine serum (ThermoFisher Scientific 10091148), 1 mM sodium pyruvate and 10 mM HEPES. PANC08.13 cells (ATCC® CRL-2551™), containing homozygous KRAS-G12D activating mutation, were cultured in growth medium made of RPMI1640-GlutaMAX™-I (ThermoFisher Scientific 61870) containing 15% heat inactivated fetal bovine serum (ThermoFisher Scientific 10091148)). AsPC-1 cells (ATCC® CRL-1682™), containing homozygous KRAS-G12D activating mutation, were cultured in T150 flask in growth medium (RPMI medium 1640-GlutaMAX™-I (ThermoFisher Scientific 61870) containing 10% fetal bovine serum (ThermoFisher Scientific 10091148)). SW620 cells (ATCC® […]), containing homozygous KRAS-G12V activating mutation, were cultured in growth medium that contains RPMI 1640-GlutaMAX™-I (ThermoFisher Scientific 61870) containing 10% heat inactivated fetal bovine serum (ThermoFisher Scientific 10091148).
Cells for the assay were harvested in growth medium after TrypLE (ThermoFisher scientific 12604021) digestion and were seeded in a 384-well collagen coated cell culture plate (Corning 356702) at a density of 10,000-15,000 cells/20 μL/well, and incubated at 37° C., 5% CO2 overnight. The compound (with 10 mM stock concentration) dose-response titrations were prepared [30 μM final ERK detection assay concentration and 1:3 dilutions, 10-point dose response] and appropriate amounts (270 nL) of test compounds were dispensed in a 384-well intermediate plate using an Echo 550 liquid handler. 30 μL/well of RPMI medium 1640-GlutaMAX™—I was added to the intermediate plate and the contents of the intermediate plate (10 μL/well) were then transferred to the 384-well collagen coated cell culture plate, which was incubated at 37° C., 5% CO2 for 2 hours. After removal of medium from the collagen coated cell culture plate, cells were lysed in lysis buffer from Alpha SureFire® Ultra™ Multiplex p-ERK and total ERK assay kit (PerkinElmer MPSU-PTERK) containing Halt™ Protease and Phosphatase inhibitor cocktail (ThermoFisher Scientific 78446) at room temperature with constant shaking at 300 rpm for 30 minutes. The cell lysates were then transferred to an OptiPlate-384 plate (PerkinElmer 6005620), and the phosphorylation of ERK (p-ERK) and total ERK levels were detected by Alpha SureFire® Ultra™ Multiplex p-EEK kit and total ERK assay kit (PerkinElmer MPSU-PTERK) following the manufacturer's protocol. Assay plates were read on a En Vision Multimode Plate Reader (PerkinElmer), and the ratio of p-ERK vs. total ERK in each well was used as the final readout. Dose response curves were analyzed using a 4-parameter logistic model to calculate IC50 values using Spotfire software.

KRAS-G12V = KRAS-G12V (Homo sapiens, UniProt P01116, G12V); assay: SOS-catalyzed nucleotide exchange assay (Procedure A, TR-FRET), KRAS-G12V; assay type: biochemical; conditions: nucleotide exchange, read-out: KRAS G12V GNE IC50
KRAS-G12V, sequence (P01116 with tags, fused parts or gaps isoform P01116-2 G12V): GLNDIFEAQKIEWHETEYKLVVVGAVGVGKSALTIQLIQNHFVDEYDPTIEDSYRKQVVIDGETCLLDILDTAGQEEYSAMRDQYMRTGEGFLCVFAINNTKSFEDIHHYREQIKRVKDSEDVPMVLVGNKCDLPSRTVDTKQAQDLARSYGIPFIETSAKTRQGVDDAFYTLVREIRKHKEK
Description: as §1, §2, §3, §4, §5

KRAS-WT = KRAS-WT (Homo sapiens, UniProt P01116); assay: SOS-catalyzed nucleotide exchange assay (Procedure A, TR-FRET), KRAS-WT; assay type: biochemical; conditions: nucleotide exchange, read-out: KRAS WT GNE IC50
KRAS-WT, sequence (P01116 with tags, fused parts or gaps isoform P01116-2): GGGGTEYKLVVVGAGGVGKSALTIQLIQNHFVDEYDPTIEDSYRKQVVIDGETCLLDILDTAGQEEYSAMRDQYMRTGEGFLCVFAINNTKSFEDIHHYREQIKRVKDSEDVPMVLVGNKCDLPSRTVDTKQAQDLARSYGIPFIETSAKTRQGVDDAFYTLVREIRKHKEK
Description: as §1, §2, §3, §4, §5

KRAS-G12D, sequence (P01116 with tags, fused parts or gaps isoform P01116-2 G12D): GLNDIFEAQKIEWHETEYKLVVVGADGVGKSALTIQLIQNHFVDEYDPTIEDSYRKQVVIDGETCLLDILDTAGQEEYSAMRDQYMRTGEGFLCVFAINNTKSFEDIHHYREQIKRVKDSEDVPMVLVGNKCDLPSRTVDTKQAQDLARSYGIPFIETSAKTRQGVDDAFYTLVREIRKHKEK

| Structure (SMILES) | IC50 (KRAS-G12D) | IC50 (AsPC-1 cells; 2 hours compound incubation) | IC50 (KRAS-G12V) | IC50 (KRAS-WT) | IC50 (AsPC-1 cells; KRAS-G12D, 2 hours) |
| --- | --- | --- | --- | --- | --- |
| C[C@@]1(O)COCCN(c2nc(OC[C@]3(CN4CC5(CCO5)C4)CC3(F)F)nc3sc4c(-c5c(C6(F)CC6)c(Cl)cc6[nH]ncc56)nccc4c23)C1 [Ex-265, (6S)-4-(2-(((R)-1-((1-oxa-6-azaspiro[3.3]heptan-6-yl)methyl)-2,2-difluorocyclopropyl)methoxy)-8-(6-chloro-5-(1-fluorocyclopropyl)-1H-indazol-4-yl)pyrido[4′,3′:4,5]thieno[2,3-d]pyrimidin-4-yl)-6-methyl-1,4-oxazepan-6-ol] | 4.21 nM | 200 nM | 14.9 nM | 24.5 nM |  |
| C[C@@]1(O)COCCN(c2nc(OC[C@@]34CCCN3C[C@H](F)C4)nc3sc4c(-c5c(C(F)(F)F)c(C(F)F)cc6[nH]ncc56)nccc4c23)C1 [Ex-155, (6S)-4-(8-(6-(difluoromethyl)-5-(trifluoromethyl)-1H-indazol-4-yl)-2-(((2R,7aS)-2-fluorotetrahydro-1H-pyrrolizin-7a(5H)-yl)methoxy)pyrido[4′,3′:4,5]thieno[2,3-d]pyrimidin-4-yl)-6-methyl-1,4-oxazepan-6-ol] | 158 nM | 927 nM | 211 nM | 350 nM |  |
| COc1cc2c(sc3nc(OC[C@@]45CCCN4C[C@H](F)C5)nc(N4CCOC[C@@](C)(O)C4)c32)c(-c2c(C(F)(F)F)c(C)cc3[nH]ncc23)n1 [Ex-27, (6S)-4-(2-(((2R,7aS)-2-fluorotetrahydro-1H-pyrrolizin-7a(5H)-yl)methoxy)-6-methoxy-8-(6-methyl-5-(trifluoromethyl)-1H-indazol-4-yl)pyrido[4′,3′:4,5]thieno[2,3-d]pyrimidin-4-yl)-6-methyl-1,4-oxazepan-6-ol] | 196 nM |  | 221 nM | 793 nM | 660 nM |
| Cc1c(Cl)cccc1-c1nccc2c1sc1nc(OC[C@@]34CCCN3C[C@H](F)C4)nc(N3CCOC[C@@](C)(O)C3)c12 [Ex-121, (S)-4-(8-(3-chloro-2-methylphenyl)-2-(((2R,7aS)-2-fluorotetrahydro-1H-pyrrolizin-7a(5H)-yl)methoxy)pyrido[4′,3′:4,5]thi-eno[2,3-d]pyrimidin-4-yl)-6-methyl-1,4-oxazepan-6-ol] | 369 nM |  | 278 nM | 1030 nM | 3430 nM |
| C=C1CN2C[C@@H](OC)C[C@@]2(COc2nc(N3CCOC[C@@](C)(O)C3)c3c(n2)sc2c(-c4c(C5CC5)c(Cl)cc5[nH]ncc45)nccc23)C1 [Ex-227, (6S)-4-(8-(6-chloro-5-cyclopropyl-1H-indazol-4-yl)-2-(((25,7aR)-2-meth-oxy-6-methylene-tetrahydro-1H-pyrrolizin-7a(5H)-yl)methoxy)pyrido [4′,3′:4,5]thieno[2,3-d]pyrimidin-4-yl)-6-methyl-1,4-oxaze-pan-6-ol] | 6.56 nM | 175 nM | 21.9 nM | 18.5 nM |  |
| C=CC(F)(F)c1c(C)cc2[nH]ncc2c1-c1nccc2c1sc1nc(OC[C@@]34CCCN3C[C@H](F)C4)nc(N3CCOC[C@@](C)(O)C3)c12 [Ex-152, (6S)-4-(8-(5-(1,1-difluoroallyl)-6-methyl-1H-indazol-4-yl)-2-(((2R,7aS)-2-fluorotetrahydro-1H-pyrrolizin-7a(5H)-yl)methoxy)pyrido[4′,3′:4,5]thieno[2,3-d]pyrimidin-4-yl)-6-methyl-1,4-oxazepan-6-ol] | 76.9 nM | 636 nM | 106 nM | 195 nM |  |
| CN1CCc2cc3[nH]ncc3c(-c3nccc4c3sc3nc(OC[C@@]56CCCN5C[C@H](F)C6)nc(N5CCOC[C@@](C)(O)C5)c34)c21 [Ex-125, (6S)-4-(2-(((2R,7aS)-2-fluorotetrahydro-1H-pyrrolizin-7a(5H)-yl)methoxy)-8-(5-methyl-1,5,6,7-tetrahydropyrrolo[2,3-f]indazol-4-yl)pyrido[4′,3′:4,5]thieno[2,3-d]pyrimidin-4-yl)-6-methyl-1,4-oxazepan-6-ol] | 66 nM |  | 94 nM | 161 nM | 1030 nM |
| C[C@@]1(O)COCCN(c2nc(OC[C@]3(CN4CCOC5(CC5)C4)CC3(F)F)nc3sc4c(-c5c(C6(F)CC6)c(Cl)cc6[nH]ncc56)nccc4c23)C1 [Ex-264, (6S)-4-(2-(((R)-1-((4-oxa-7-azaspiro[2.5]octan-7-yl)methyl)-2,2-difluorocyclopropyl)methoxy)-8-(6-chloro-5-(1-fluorocyclopropyl)-1H-indazol-4-yl)pyrido[4′,3′:4,5]thieno[2,3-d]pyrimidin-4-yl)-6-methyl-1,4-oxazepan-6-ol] | 63.9 nM | 618 nM | 215 nM | 351 nM |  |
| C[C@@]1(O)COCCN(c2nc(OC[C@@]34CCCN3C[C@H](F)C4)nc3sc4c(-c5c6ccccc6cc6[nH]ncc56)nccc4c23)C1 [Ex-170, (6S)-4-(8-(1H-benzo[f]indazol-4-yl)-2-(((2R,7aS)-2-fluorotetrahydro-1H-pyrrolizin-7a(5H)-yl)methoxy)pyrido[4′,3′:4,5]thieno[2,3-d]pyrimidin-4-yl)-6-methyl-1,4-oxazepan-6-ol] | 32.9 nM | 219 nM | 33.4 nM | 89.6 nM |  |
